{
  "source": "patent US11814352B2",
  "about": "“Salts formed by 2-(1-acyloxy-n-pentyl) benzoic acid and basic amino acid or aminoguanidine, and preparation method and application thereof” (JIANGSU KANION PHARMACEUTICAL CO., LTD., priority 2018, dated 2023)",
  "key": {"[1]": {"experiment": "Solubility test (saturated solubility in water)", "format": "physicochemical", "conditions": "25±2° C.", "protocol": "Test method: 10 mg of a test sample (solid was ground into fine powder) was weighed and added to a certain amount of solvent at 25±2° C. (the temperature of a water bath is controlled at 25° C.), and the solution was shaken vigorously for 30 s every 5 min. The dissolution was observed within 30 min. When there were no visible solute particles or droplets, the test sample was regarded as completely dissolved."}, "[2]": {"system": "ADP induced platelet aggregation", "experiment": "In vitro anti-platelet aggregation, ADP induced (turbidimetry, PRP)", "format": "cell-based, rabbits", "conditions": "read-out: IC50 ADP (10 μM); rabbit PRP, inducer ADP 10 μM, 37° C.", "protocol": "(§1) The animals were used for experiments after 1 week.\n(§2) The common carotid artery was separated, and a polyethylene tube was inserted into the common carotid artery to collect blood. […] The upper beige suspension was pipetted to obtain the platelet-rich plasma (PRP). […] The PRP was adjusted with the PPP to make the platelet count at 1×10^8/mL.\n(§3) 260 μL of platelet-rich plasma (PRP) was added into a turbidimetric tube. Then 10 μL of test compounds with different concentrations, positive control drugs or normal saline were separately added, and the plasma was incubated at 37° C. for 5 min. Then 30 μL of inducers were added in sequence. The final concentration of an inducer ADP is 10 μM, and the final concentration of an inducer AA is 1 mM. […] Inhibition rate of platelet aggregation (IRPA)=(platelet aggregation rate of the control group−platelet aggregation rate of the experimental group)/platelet aggregation rate of the control group×100%."}, "[3]": {"system": "AA induced platelet aggregation", "experiment": "In vitro anti-platelet aggregation, AA induced (turbidimetry, PRP)", "format": "cell-based, rabbits", "conditions": "read-out: IC50 AA (1 mM); rabbit PRP, inducer AA 1 mM, 37° C.", "protocol": "as §1, §2, §3"}, "[4]": {"system": "arteriovenous bypass thrombosis in rats", "experiment": "Effect on arteriovenous bypass thrombosis in rats", "format": "in vivo, SD rats", "conditions": "10 mg/kg/day tail vein 7 days; for Dry weight of thrombus / Wet weight of thrombus: 2 h after last dose; for Inhibition rate (dry weight of thrombus) / Inhibition rate (wet weight of thrombus): vs model group", "protocol": "Male SD rats, weighing 250-280 g, purchased from Beijing Vital River Laboratory Animal Technology Co., Ltd., raised in an SPF breeding environment with indoor temperature controlled at 23±2° C., and allowed to freely eat and drink. The total number of the animals is 64.\nModel group: injected with the same volume of normal saline (containing 1% DMSO) through the tail vein, and administered continuously for 7 days. The test was started 2 h after the last dose (n=8).\nThe dose of all drugs was 10 mg/kg/day. The drugs were formulated into normal saline solutions containing 1% DMSO, and injected through the tail vein for 7 consecutive days. The test was started 2 hours after the last dose (n=8).\nThe rats were intraperitoneally injected with a 3% pentobarbital sodium solution (30 mg/kg). After anesthesia, the rats were immobilized in the supine position, and a median cervical incision was made to separate the right common carotid artery and left external jugular vein. A 6 cm long suture was put in the middle of a polyethylene tube (the suture needs to be weighed before being put in the tube), and the polyethylene tube was filled with heparin saline (50 U/mL). The polyethylene tube was inserted into the separated blood vessels to make the artery and vein form a loop. After 15 min of circulation of the blood flow, the suture was taken out, and the suture with thrombus was collected and weighed immediately. Then, after the suture was dried at room temperature for 24 h, the dry weight was determined. The total weight minus the weight of the suture was the wet weight of the thrombus, and the dry weight minus the weight of the suture was the dry weight of the thrombus."}, "MCAO rats": {"system": "MCAO rats", "experiment": "Cerebral infarction, cerebral edema and nerve function of rats with focal cerebral ischemia (MCAO)", "format": "in vivo, SD rats", "protocol": "The total number of the animals was 88.\nSham operation group: equal volume of normal saline (containing 1% DMSO) (iv. 3 days), TTC, cerebral edema and neurological function score (n=8); […]\nThe middle cerebral arteries of the rats were blocked by a suture-occluded method, and reperfused after 2 h. […] All drugs were formulated into normal saline solutions containing 1% DMSO for administration, and the duration of administration was controlled at approximately 1 min. […] 2 h after the last administration, the neurological defect scores were firstly obtained, and then the rats of each group were sacrificed. The whole brains were taken out and weighed (wet weight), TTC stained, and dried to determine the effects of the compounds on cerebral infarction and cerebral edema.\n2 h after the last administration, the neurological defects of the animals were graded and scored by the Longa's method.\nAfter the neurobehavioral examination was completed, four coronal incisions were made on the whole brains of the rats on the optic chiasma and 2 mm anteroposterior positions of the optic chiasma. After the whole brains were cut into five slices, the brain slices were quickly placed in 5 ml of phosphate buffer solution containing 2% TTC, and incubated at 37° C. in the dark. In the incubation process, the brain slices were turned once every 5 min. After 10 min of incubation, the brain slices were taken out and pictures were taken with a digital camera (Olympus C-4000, Japan).\nThe calculation formula of brain water content is as follows: Water content of brain tissue (%)=(wet weight of brain tissue−dry weight of brain tissue)/wet weight of brain tissue×100%; Cerebral edema rate (%)=water content of brain tissue of each group (%)−water content of brain tissue of sham operation group (%)/water content of brain tissue of sham operation group (%)×100%; Inhibition rate of cerebral edema (%)=(rate of cerebral edema of model group (%)−rate of cerebral edema of administration group (%))/rate of cerebral edema of model group (%)×100%."}, "[5]": {"conditions": "literature value; cited from earlier work"}, "[6]": {"experiment": "Pharmacokinetics of metabolites in rat plasma after intravenous injection of I1s", "format": "in vivo, SD male rats", "conditions": "metabolite in rat plasma after I1s 25 mg/kg tail vein; rats 1-3; listed as M4", "protocol": "(§4) 12 clean SD male rats, provided by Qinglongshan Animal Breeding Farm in Jiangning District, Nanjing. The production license number is SCXK (Jiangsu) 2017-0001. The body weight of the rats ranges from 180 to 220 g. The rats were used after being raised in the laboratory of an experimental animal center for 2 days after purchase, fasted for 12 hours before administration and 6 hours after administration, and were allowed to freely drink during the test period.\n(§5) The concentration of the original drugs and metabolites in the rat blood were determined by LC-MS/MS, and WinNonlin pharmacokinetics professional software and a statistical moment method were used for calculation to obtain the corresponding pharmacokinetic parameters."}, "[7]": {"experiment": "Concentration of metabolites in rat brain tissue after intravenous injection of I1s", "format": "in vivo", "conditions": "for Concentration in brain tissue (single rats): listed as M4", "protocol": "as §4, §5"}, "[8]": {"experiment": "Concentration of metabolites in rat brain tissue after intravenous injection of I1s", "format": "in vivo"}, "[9]": {"target": "hERG potassium channel of CHO-hERG cells (Homo sapiens, UniProt Q12809)", "sequence (Q12809 whole entry)": "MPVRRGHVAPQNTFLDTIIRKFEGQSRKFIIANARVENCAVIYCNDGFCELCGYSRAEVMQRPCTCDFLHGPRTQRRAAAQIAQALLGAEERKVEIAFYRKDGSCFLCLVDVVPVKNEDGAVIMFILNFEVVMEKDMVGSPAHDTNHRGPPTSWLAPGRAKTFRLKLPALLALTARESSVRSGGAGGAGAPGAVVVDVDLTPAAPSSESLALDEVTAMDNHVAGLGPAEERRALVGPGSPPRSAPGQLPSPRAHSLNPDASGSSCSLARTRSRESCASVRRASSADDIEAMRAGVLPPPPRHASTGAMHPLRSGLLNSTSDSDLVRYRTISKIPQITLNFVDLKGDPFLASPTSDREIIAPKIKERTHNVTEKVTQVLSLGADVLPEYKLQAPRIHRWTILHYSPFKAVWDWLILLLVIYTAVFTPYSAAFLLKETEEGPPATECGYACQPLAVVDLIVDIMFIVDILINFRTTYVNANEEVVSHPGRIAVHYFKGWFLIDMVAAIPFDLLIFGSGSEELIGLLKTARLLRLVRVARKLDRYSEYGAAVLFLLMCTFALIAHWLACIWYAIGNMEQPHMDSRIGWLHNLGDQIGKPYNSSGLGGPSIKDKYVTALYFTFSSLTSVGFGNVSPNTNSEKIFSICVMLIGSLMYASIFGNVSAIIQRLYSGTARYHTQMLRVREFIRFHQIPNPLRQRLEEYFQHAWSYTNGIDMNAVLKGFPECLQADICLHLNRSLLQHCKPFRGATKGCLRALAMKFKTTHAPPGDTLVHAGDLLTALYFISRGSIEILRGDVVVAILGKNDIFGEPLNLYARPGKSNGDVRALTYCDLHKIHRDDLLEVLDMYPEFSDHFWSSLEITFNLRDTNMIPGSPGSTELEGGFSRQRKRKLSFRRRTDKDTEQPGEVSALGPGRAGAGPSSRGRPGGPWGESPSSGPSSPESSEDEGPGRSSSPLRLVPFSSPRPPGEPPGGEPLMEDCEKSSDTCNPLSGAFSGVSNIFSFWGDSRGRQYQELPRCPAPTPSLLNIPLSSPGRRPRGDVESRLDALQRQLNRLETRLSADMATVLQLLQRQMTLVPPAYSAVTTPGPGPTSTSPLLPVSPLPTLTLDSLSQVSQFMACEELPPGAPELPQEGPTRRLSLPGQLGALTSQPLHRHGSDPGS", "experiment": "Effect on hERG potassium channel (automatic patch clamp)", "conditions": "CHO-hERG cells, maximum concentration"}, "[10]": {"conditions": "MCAO rats, 10 mg/kg/day iv 3 days (combinations equimolar), first dose 2 h after reperfusion"}, "[11]": {"conditions": "0.5 h after intravenous injection of I1s"}, "[12]": {"conditions": "1 h after intravenous injection of I1s"}, "[13]": {"conditions": "6 h after intravenous injection of I1s"}},
  "note": "Where “and” joins values, the source holds several entries; their conditions need not be identical. Equal entries are not always repeated. Marks after values point to notes of the source that are not given here.",
  "data": [
    {"smiles": "CCCCC(O)c1ccccc1C(=O)[O-].[K+]", "note": "(racemic) [PHPB, Potassium (R/S)-2-(1-hydroxy-n-pentyl) benzoate]", "values": [
      {"measurement": "Saturated solubility in H2O, Mean", "setting": "[1]", "value": 147.07, "unit": "mg/mL"},
      {"measurement": "Saturated solubility in H2O, dissolved sample amount (single determinations)", "setting": "[1]", "value": "148.30 mg/mL and 148.04 mg/mL and 145.97 mg/mL and 145.98 mg/mL"},
      {"measurement": "IC50", "setting": "[2]", "value": "960 ± 70", "unit": "µM"},
      {"measurement": "IC50", "setting": "[3]", "value": "350 ± 90", "unit": "µM"},
      {"measurement": "Dry weight of thrombus", "setting": "[4]", "value": "8.90 ± 0.45"},
      {"measurement": "Wet weight of thrombus", "setting": "[4]", "value": "30.64 ± 10.21"},
      {"measurement": "Inhibition rate (dry weight of thrombus)", "setting": "[4]", "value": 11.32, "unit": "%"},
      {"measurement": "Inhibition rate (wet weight of thrombus)", "setting": "[4]", "value": 15.39, "unit": "%"},
      {"measurement": "Cerebral edema", "setting": "MCAO rats; [10]", "value": "10.71 ± 3.55", "unit": "%"},
      {"measurement": "Infarct volume", "setting": "MCAO rats; [10]", "value": "20.23 ± 3.02", "unit": "%"},
      {"measurement": "Inhibition rate of cerebral edema", "setting": "MCAO rats; [10]", "value": 33.23, "unit": "%"},
      {"measurement": "Inhibition rate of infarct volume", "setting": "MCAO rats; [10]", "value": 51.66, "unit": "%"},
      {"measurement": "half-life", "setting": "[5]", "value": 45, "unit": "min"}
    ]},
    {"smiles": "CCCC[C@@H]1OC(=O)c2ccccc21", "note": "[(S)-NBP, (S)-butylphthalide]", "values": [
      {"measurement": "Saturated solubility in H2O, Mean", "setting": "[1]", "value": 0.54, "unit": "mg/mL"},
      {"measurement": "IC50", "setting": "[2]", "value": "1290 ± 110", "unit": "µM"},
      {"measurement": "IC50", "setting": "[3]", "value": "500 ± 40", "unit": "µM"},
      {"measurement": "Dry weight of thrombus", "setting": "[4]", "value": "7.44 ± 0.37"},
      {"measurement": "Wet weight of thrombus", "setting": "[4]", "value": "24.18 ± 1.02"},
      {"measurement": "Inhibition rate (dry weight of thrombus)", "setting": "[4]", "value": "25.95^## %"},
      {"measurement": "Inhibition rate (wet weight of thrombus)", "setting": "[4]", "value": "33.24^## %"},
      {"measurement": "Cerebral edema", "setting": "MCAO rats; rat, in vivo, iv, 10 mg/kg/day", "value": "4.45 ± 4.58", "unit": "%"},
      {"measurement": "Infarct volume", "setting": "MCAO rats; rat, in vivo, iv, 10 mg/kg/day", "value": "14.18 ± 2.69", "unit": "%"},
      {"measurement": "Inhibition rate of cerebral edema", "setting": "MCAO rats; rat, in vivo, iv, 10 mg/kg/day", "value": 72.28, "unit": "%"},
      {"measurement": "Inhibition rate of infarct volume", "setting": "MCAO rats; rat, in vivo, iv, 10 mg/kg/day", "value": 66.12, "unit": "%"},
      {"measurement": "AUC(0-t)", "setting": "[6]", "value": "32828.9 ng·h/mL and 40061.1 ng·h/mL and 34160.8 ng·h/mL"},
      {"measurement": "AUC(0-∞)", "setting": "[6]", "value": "32988.3 ng·h/mL and 40153.8 ng·h/mL and 34287.8 ng·h/mL"},
      {"measurement": "Cl", "setting": "[6]", "value": "12.631 mL/min/kg and 10.377 mL/min/kg and 12.152 mL/min/kg"},
      {"measurement": "Cmax", "setting": "[6]", "value": "52.5136 µg/mL and 69.7952 µg/mL and 65.7002 µg/mL"},
      {"measurement": "Vz", "setting": "[6]", "value": "3.704 L/kg and 2.6838 L/kg and 3.6105 L/kg"},
      {"measurement": "Concentration in brain tissue (single rats)", "setting": "[7]; [11]", "value": "556.35 ng/g and 627.76 ng/g and 633.25 ng/g"},
      {"measurement": "Concentration in brain tissue (single rats)", "setting": "[7]; [12]", "value": "131.66 ng/g and 119.84 ng/g and 388.42* ng/g"},
      {"measurement": "Concentration in brain tissue (single rats)", "setting": "[7]; [13]", "value": "27.06 ng/g and 30.85 ng/g and 51.78 ng/g"},
      {"measurement": "Passage through the blood-brain barrier", "setting": "[7]; detected in rat brain tissue after iv I1s", "value": "could all pass through the blood-brain barrier"},
      {"measurement": "Concentration in brain tissue, Mean", "setting": "[8]; [11]", "value": 605.79, "unit": "ng/g"},
      {"measurement": "Concentration in brain tissue, Mean", "setting": "[8]; [12]", "value": 125.75, "unit": "ng/g"},
      {"measurement": "Concentration in brain tissue, Mean", "setting": "[8]; [13]", "value": 36.56, "unit": "ng/g"},
      {"measurement": "inhibition rate of hERG potassium channel at the maximum concentration", "setting": "[9]", "value": 41.45, "unit": "%"}
    ]}
  ]
}
